The results in this text go back to patent US6143875A, “Antibody to DNase involved in apoptosis” (priority 1994, dated 2000).

Substitutions are numbered along the chain they refer to. Values joined by “and” are separate entries in the source; they are usually repeats but may differ in a detail not shown here. Identical values can stand only once.

Usually IC50 stands for the midpoint of a concentration-inhibition curve.

The target in series [1] is T1, DNase γ (Rattus norvegicus, UniProt O89107).
T1 sequence (O89107 26-310): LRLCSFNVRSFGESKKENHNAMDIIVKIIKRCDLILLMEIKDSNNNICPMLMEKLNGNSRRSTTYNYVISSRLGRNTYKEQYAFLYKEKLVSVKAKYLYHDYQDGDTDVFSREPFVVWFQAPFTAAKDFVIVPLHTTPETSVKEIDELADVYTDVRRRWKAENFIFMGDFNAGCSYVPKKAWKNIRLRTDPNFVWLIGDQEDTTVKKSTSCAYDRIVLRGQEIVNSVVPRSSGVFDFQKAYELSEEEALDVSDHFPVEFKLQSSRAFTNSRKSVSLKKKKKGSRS
Briefly: DNase (endonuclease) activity assay, HeLa S3 nuclei as substrate (Assay 1). It counts as biochemical. The conditions noted are these: for optimal concentration for full DNase γ activity: both Ca2+ and Mg2+ required, other cation at 3 mM; for DNase activity (%) γ: optimal mixture =100%. The procedure:
(§1) The activity of endonuclease (DNase) can be assayed by observing fragmentation of chromosomal DNA in the nucleus on 2% agarose gel electrophoresis using, as a substrate, the nucleus of HeLa S3 cell (human cervical carcinoma epithelial cell) which is completely free of endogenous endonuclease [Biochem. Biophys. Res. Commun. 194, (1993), pp, 30-31].
(§2) To be specific, a reaction mixture (30 μl) of HeLa S3 cells (1.67×10^7 /ml) and DNase fraction is incubated at 37° C. for 60 minutes and the reaction is stopped by cooling same on ice. Then, the reaction mixture after reaction is centrifuged at 20,000× g for 20 seconds, and the precipitated nuclei are dissolved in a lysis buffer [50 mM Tris-HCl (pH 7.8), 10 mM EDTA, 0.5% w/v N-lauronyl sarcosylate Na]. The obtained DNA is thoroughly treated with 0.5 mg/ml RNase A for 20 minutes and with 0.5 mg/ml proteinase K for 30 minutes, after which they are subjected to 2% agarose gel electrophoresis. […] The ratio of fragmentation (percent fragmentation) is calculated from the density of DNA fragments with a molecular weight of less than 5 kb.
(§3) As a suitable reaction solution for the assay of the activity of DNases α and β, 50 mM MES-NaOH (-pH 5.6) buffer containing 3 mM MgCl2, 1 mM 2-mercaptoethanol and 0.1 mM PMSF is used. As a suitable reaction solution for the assay of the activity of DNase γ, 50 mM MOPS-NaOH (pH 7.2) buffer containing 3 mM CaCl2, 3 mM MgCl2, 1 mM 2-mercaptoethanol and 0.1 mM PMSF is used.
(§4) Effects of divalent cations on the activity of DNase α, […] were examined. To be specific, the effect of Mg^2+ was examined by assaying the activity of purified DNases α, β and γ in the presence of 3 mM CaCl2 with increasing concentrations of MgCl2. The effect of Ca^2+ was examined by assaying the activity of DNases α, β and γ purified in the same manner, with increasing concentrations of CaCl2 in the presence of 3 mM MgCl2. The effect of Zn^2+ was examined in 50 mM […] (pH 5.6) buffer containing 3 mM MgCl2, 1 mM 2-mercaptoethanol and 0.1 mM PMSF with increasing concentrations of ZnCl2 with regard to DNases α and β, and it was examined in 50 mM MOPS-NaOH (pH 7.2) buffer containing 3 mM CaCl2, 3 mM MgCl2, 1 mM 2-mercaptoethanol and 0.1 mM PMSF, with increasing concentrations of ZnCl2 with regard to DNase γ. The results are shown in FIG. 8, FIG. 8B, and FIG. 8C. As a result, DNase γ required both Ca^2+ and Mg^2+ for full activity, wherein the optimal concentration of the both was 1-3 mM (FIG. 8A and FIG. 8B). DNase γ was sensitive to Zn^2+, and its activity was inhibited by 50% by Zn^2+ with a low concentration of 40 μM (FIG. 8c).
(§5) The activity of DNases α and β was calculated relative to the endonuclease activity which was assayed using HeLa S3 cell nuclear chromatin DNA as a substrate and 50 mM MES-NaOH (pH 5.6) buffer containing 3 mM MgCl2, 1 mM 2-mercaptoethanol and 0.1 mM PMSF as a reaction solution, and taken as 100%; and the activity of DNase γ was calculated relative to the endonuclease activity which was assayed using HeLa S3 cell nuclear chromatin DNA as a substrate and 50 mM MOPS-NaOH (pH 7.2) buffer containing 3 mM CaCl2, 3 mM MgCl2, 1 mM 2-mercaptoethanol and 0.1 mM PMSF as a reaction solution, and taken as 100%. In the Table, "-" means deletion of said components from the above-mentioned optimal reaction mixture and "+" means addition of said components to the above-mentioned optimal reaction mixture.

Series [2] concerns DNase β. Described as above. It counts as biochemical, rat. The conditions noted are these: for effect of divalent cation on DNase β activity: increasing concentrations of MgCl2 or CaCl2. The procedure:
as §1, §2, §3, §4, §5

For series [3], the system named is DNase α. The description is as above. It counts as biochemical, rat. The conditions noted are these: for effect of divalent cation on DNase α activity: increasing concentrations of MgCl2 or CaCl2. The procedure: as §1, §2, §3, §4, §5
Series [4] relates to DNA derived from HeLa S3 cell nuclei. The series is described as follows: End labeling method, DNA cleavage mode. It counts as biochemical, human. The conditions noted are these: 3' and 5' end labeling with/without alkaline phosphatase.
The test system of series [5] is HeLa S3 cell nuclear chromatin DNA. Briefly: Endonuclease activity of purified DNases in HeLa S3 nuclear assay system. Format: biochemical, human. The procedure:
as §1, §2, §3
The optimal pH for the activity of DNases α, β and γ was determined by assaying HeLa S3 nuclei in various buffers from acidic to basic (Reference Example 3, Assay 1) and calculating from the percentage of DNA fragmentation.
as §5

[6] abbreviates: +3 mM added to optimal reaction mixture (=100%).
Setting [7] is: +Mn2+ 3 mM, -Mg2+/Ca2+, optimal mixture =100%.
The mark [8] stands for this setting: +Zn2+ 0.1 mM, optimal mixture =100%.
The mark [9] stands for this setting: increasing ZnCl2 in pH 5.6 buffer, 3 mM MgCl2, read-out: Inhibition by Zn2+: IC50.
The mark [10] stands for this setting: up to the concentration of 1 mM.
Where [11] appears, read: +aurintricarboxylate 30 μM, optimal mixture =100%.
The mark [12] stands for this setting: +aurintricarboxylate 100 μM, optimal mixture =100%.

In the case of `[Ca+2].[Cl-].[Cl-]` [Ca^2+], the “optimal concentration for full DNase γ activity” value in series [1] was in the range of 1 to 3 mM. Further, the “DNase activity (%) β” value in series [2] (setting [6]) was found to be 104%. For the same molecule, the “effect of divalent cation on DNase β activity” value in series [2] was “not influenced”. Further, the “DNase activity (%) α” value in series [3] (setting [6]) turned out to be 101%. For the same molecule, the “effect of divalent cation on DNase α activity” value in series [3] is on record as “not influenced”.
As to `[Cl-].[Cl-].[Mg+2]` [Mg^2+], in series [1], the “optimal concentration for full DNase γ activity” value lay within 1 to 3 mM. Moreover, the “DNase activity (%) β” value in series [2] (setting [6]) worked out at 102%. For the same molecule, the “effect of divalent cation on DNase β activity” value in series [2] is “not influenced”. In addition, the “DNase activity (%) α” value in series [3] (setting [6]) stood at 104%. The “effect of divalent cation on DNase α activity” value in series [3] was “not influenced”.
Consider `[Mn+2]` [Mn^2+], for which the “DNase activity (%) γ” value in series [1] (+Mn2+ 3 mM, -Mg2+/Ca2+) is reported as 45%. In series [2] (setting [7]), the “DNase activity (%) β” value is listed as 103%. Further, the “DNase activity (%) α” value in series [3] (setting [7]) worked out at 104%.
Turning to `[Cl-].[Cl-].[Zn+2]` [Zn^2+], in series [1] (+Zn2+ 0.1 mM), the “DNase activity (%) γ” value stood at 21%. The IC50 in series [1] (increasing ZnCl2 in 50 mM MOPS-NaOH (pH 7.2), 3 mM CaCl2, 3 mM MgCl2, read-out: Inhibition by Zn2+: IC50) is 40 µM; in series [2] (setting [9]) it was not below 1000 µM; in series [3] (setting [9]), not below 1000 µM. In series [2] (setting [8]), the “DNase activity (%) β” value is 93%. Moreover, the “effect of Zn2+ on DNase β activity” value in series [2] (setting [10]) was “not influenced”. In series [3] (setting [8]), the “DNase activity (%) α” value is reported as 90%. In addition, the “effect of Zn2+ on DNase α activity” value in series [3] (setting [10]) is on record as “not influenced”.
Consider `O=C(O)C1=CC(=C(c2ccc(O)c(C(=O)O)c2)c2ccc(O)c(C(=O)O)c2)C=CC1=O` [aurintricarboxylic acid], for which the “DNase activity (%) γ” value is 29% in series [1] (+aurintricarboxylate 30 μM) and 0% in series [1] (+aurintricarboxylate 100 μM). Moreover, in series [1] (at a concentration of 100 μM), the “inhibition of DNase γ activity” value is “completely inhibited”. In addition, the “DNase activity (%) β” value in series [2] (setting [11]) and in series [2] (setting [12]) was 0% in each case. The “inhibition of DNase β activity” value in series [2] (at a concentration of 100 μM) was “completely inhibited”. In addition, the “inhibition of DNase α activity” value in series [3] is recorded as “completely inhibited”. Besides, the “DNase activity (%) α” value in series [3] (setting [11]) is 32%; in series [3] (setting [12]) it was 0%.

B1: DNase γ: novel endonuclease of rat cell nuclei cleaving linker sites of chromatin DNA; SEQ ID NO: 1, amino acids 26-310 (protein)
chain: T1 sequence (O89107 26-310) with N163I, L218V
Take B1: the DNA cleavage mode in series [4] was 3'-OH/5'-P termini and 3'--OH, 5'-P end forming type. Also, the Divalent cation dependency result in series [5] is “Ca^2+ /Mg^2+, Mn^2+ dependent”. Also, the “DNase activity (%)” value in series [5] (-2-mercaptoethanol (deleted from optimal reaction mixture =100%)) is reported as 96%; in series [5] (-Ca2+ (deleted from optimal reaction mixture =100%)), 1%; in series [5] (-Mg2+ (deleted from optimal reaction mixture =100%)), 16%; in series [5] (-PMSF (deleted from optimal reaction mixture =100%)), 94%.
